PubChem BioAssay (NCI)
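Cells were grown in 96-well plates and exposed to each compound for 48 hours at five concentrations; endpoints were interpolated linearly between bracketing concentrations, or set to the highest concentration if not reached. GI50 = concentration required for 50% inhibition of growth. The concentration for full growth arrest is given as TGI.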

Experiments:
Assay in all cases: DTP human tumour cell line panel, 48 h
MALME-3M melanoma = test system: MALME-3M melanoma
SK-OV-3 ovarian = test system: SK-OV-3 ovarian
MCF7 breast = test system: MCF7 breast
OVCAR-8 ovarian = test system: OVCAR-8 ovarian
SK-MEL-5 melanoma = test system: SK-MEL-5 melanoma
HS 578T breast = test system: HS 578T breast
NCI/ADR-RES ovarian = test system: NCI/ADR-RES ovarian
M14 melanoma = test system: M14 melanoma
SNB-75 CNS = test system: SNB-75 CNS
HCC-2998 colon = test system: HCC-2998 colon

SMILES | GI50 (MALME-3M melanoma) [µM] | TGI (MALME-3M melanoma) [µM] | GI50 (SK-OV-3 ovarian) [µM] | TGI (SK-OV-3 ovarian) [µM] | GI50 (MCF7 breast) [µM] | TGI (MCF7 breast) [µM] | GI50 (OVCAR-8 ovarian) [µM] | TGI (OVCAR-8 ovarian) [µM] | GI50 (SK-MEL-5 melanoma) [µM] | TGI (SK-MEL-5 melanoma) [µM] | GI50 (HS 578T breast) [µM] | TGI (HS 578T breast) [µM] | GI50 (NCI/ADR-RES ovarian) [µM] | TGI (NCI/ADR-RES ovarian) [µM] | GI50 (M14 melanoma) [µM] | TGI (M14 melanoma) [µM] | GI50 (SNB-75 CNS) [µM] | TGI (SNB-75 CNS) [µM] | GI50 (HCC-2998 colon) [µM] | TGI (HCC-2998 colon) [µM]
COc1cccc(/C=N\Nc2ccc([N+](=O)[O-])cn2)c1O | 4.11 | 36 | 2.94 | 20.4 | 3.18 | 71.1 | 2.55 | 15.6 | 1.76 | 5.92 | 4.52 | > 100 | 2.43 | 28 | 3.34 | 25.9 | 8.78 | 57.2 | 8.01 | > 100
CCCCCCCCCCCCCCCc1cc(O)ccc1N | > 62.1 | > 100 | 31.7 | > 76.4 | 23 | > 100 | 43.5 | > 100 | > 100 | > 100 | 17 | 99.4 | 5.81 | 68.8 | > 100 | > 100 | 4.76 | 68.9 | > 100 | > 100
O=S1(=O)CCN(Cc2ccccn2)CC1 | – | > 100 | – | > 100 | – | > 100 | – | > 100 | – | > 100 | – | > 100 | – | > 100 | – | > 100 | – | > 100 | – | > 100
COc1ccc2c(c1)CC[C@@H]1[C@@H]2CC[C@@]2(C)[C@H]1CC1(CCCCC1)[C@@H]2O | 18.8 | 36.3 | 21.6 | 41.3 | 18.4 | 37.5 | 19 | 41.5 | 8.06 | 20.4 | 3.59 | 10.9 | 14.8 | 30.7 | 13.8 | 31.4 | 16.4 | 35.1 | 14.1 | 28.5
COc1cnc2c(c1)C(=O)c1c-2n(CCCn2ccnc2)c(=O)c2cc(Cl)ccc12 | 0.293 | 37.4 | 0.0403 | 0.303 | < 0.01 | – | 0.0389 | 14.3 | 0.0387 | 0.164 | 11.4 | > 100 | 0.03 | 12.5 | 0.0282 | 0.162 | 0.219 | 18.9 | 0.382 | > 100
CCN(CC)CCOc1ccc(/C=C2\CC3C4CCC5=CC(=O)CC[C@]5(C)C4CC[C@]3(C)C2=O)cc1OC (some centres undefined) | 1.5 | 2.95 | 2.66 | 8.46 | 3.02 | 13.7 | 4.09 | 18.2 | 1.63 | 3.28 | 2.45 | 17.3 | 3.22 | 13 | 2.08 | 3.96 | 3.02 | 7.78 | 2.18 | 5.18
CCN(CC)c1ccc2c(c1)Oc1nc(N)c(C#N)c(N)c1C2Sc1ccc(SC)cc1 (centres undefined) | 2.38 | 4.72 | 2.16 | 3.96 | 1.6 | 3.65 | 2.08 | 4.43 | 1.65 | 3.01 | 2.15 | 7.1 | 2.39 | 6.13 | 1.74 | 3.47 | 1.56 | 3.17 | 1.96 | 3.47
ClCCN(CCCl)c1ccc(-n2cnc3c(Cl)ncnc32)cc1 | 2.17 | 4.41 | 11 | 22.9 | 3.68 | 15.1 | 2.37 | 5.38 | 2.36 | 5.94 | 2.95 | 9.79 | 4.15 | 20.3 | 1.96 | 3.88 | 2.06 | 7.37 | 1.84 | 3.41
COC(=O)c1ccccc1NC(=O)/C(=N\NC(C)(C)C)C(C#N)c1nc(-c2ccc([N+](=O)[O-])cc2)cs1 (centres undefined) | – | > 100 | – | > 100 | – | > 100 | – | > 100 | – | > 100 | – | > 100 | – | > 100 | – | > 100 | – | > 100 | – | > 100
